The values below are quoted from earlier work in PMC11317963 (Neural Regeneration Research, 2024).

In data set [1] the test system is permanent middle cerebral artery occlusion model. The following applies: compared with VEGF; ref Pignataro et al., 2015.
The conditions of data set [2]: ref Diana et al., 2008; Finetti et al., 2012.
The conditions of data set [3]: ref Zhang et al., 2000.

Regarding KLTWQELYQLKYKGI [QK], in data set [1], the vessel permeability result is recorded as “decrease vessel permeability compared with VEGF”. In addition, in data set [2], the thermal stability result is on record as “relatively high thermal stability”.

Regarding VEGF, the half-life in vivo entry in data set [3] is “relatively short”.
